Here are results for 2 compounds from patent US8815935B2, “Inhibitors of protein prenyltransferases” (The Regents of the University of California, priority 2008, dated 2014).

Where “and” joins values, the source holds several entries; their conditions need not be identical. Equal values may be shown once.

In data set [1] the test system is geranylgeranylated Rheb (Rheb-CSVL) in HEK 293 cells. The experiment in a line: Rheb-CSVL mobility shift in HEK 293 cells. It counts as cell-based, human. Particulars: 48 hours. The text has this: Finally, we investigated in vivo effects of compounds 22 (also known as UC-22) and 23 (also known as UC-23). Human embryonic kidney (HEK) 293 cells were transfected with the Rheb-CSVL construct that expresses the geranylgeranylated form of the Rheb protein. Inhibition of the geranylgeranylation of this protein can be detected from a shift in its mobility on SDS polyacrylamide gel; the unprocessed form appears as a slowly migrating band.
Human embryonic kidney (HEK) 293 cells expressing Myc-HA tagged-Rheb-CVSL (upper) or Myc-HA tagged-Rheb-WT (lower) were treated with P3-E5 for 48 hours and then lysed. The cell lysates were run on a SDS polyacrylamide gel and immunoblotted using anti-Myc or anti-Actin antibody. The descriptors P and U indicate processed and unprocessed Rheb, respectively.
Human embryonic kidney (HEK) 293 cells expressing Myc-HA tagged-Rheb-CVSL (upper) or Myc-HA tagged-Rheb-WT (lower) were treated with mP5-H6a (also referred to as mP5-H6), or GGTI-298 for 48 hours and then lysed. Lysates were run on a SDS polyacrylamide gel and immunoblotted with anti-Myc or anti-Actin antibody.

Another data set relates to K562 cells. The experiment in a line: K562 cell growth inhibition. The conditions noted are these: 72 hours. It counts as cell-based, human. The procedure, abridged: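 Human erythroleukemia K562 cells exposed to compound for 72 hours. Cell number measured with CCK-8 and viability expressed relative to the DMSO control.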
For a further data set, the system named is Jurkat cells. Nature of the data set: Jurkat cell growth inhibition. The conditions noted are these: Homo sapiens, Jurkat, 72 h; 3 days, CCK-8, vs DMSO; read-out: IC50, Jurkat (Blood). It counts as cell-based, human. The procedure, abridged:
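Jurkat T-cell leukemia cells were exposed to compound for 72 h, with cell number counted and viability read by CCK-8 relative to the DMSO control. GI50 is the compound concentration giving 50% growth inhibition.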

The next data set concerns Capan-2. The experiment in a line: Capan-2 cell growth inhibition. It counts as cell-based, human. The conditions noted are these: Homo sapiens, Capan-2, 72 h; 3 days, CCK-8, vs DMSO; read-out: IC50, Capan-2 (Pancreas). On the procedure:
(§1) In FIG. 9-24 in vitro IC50 values for the GGTase I activity are reported. In Tables 7-15 in cell GI50 values for the growth inhibition of a variety of cancer cell lines (e.g., Jurkat, K562, MDA-MB-231, BT474, MCF7, MiaPaCa2, Aspc-1, Panc-1, Capan-2, CFpac-1, and MCF10a) are reported.
(§2) Cell viability was determined by Cell Counting Kit-8 (CCK-8, Dojindo, Kumamoto, Japan) as described previously (31). Cell viability was calculated relative to the DMSO control. Cell cycle profile was analyzed by flow cytometry as described previously (32).

A short description of data set [2]: Pharmacokinetics (serum levels) after IP dosing. It counts as in vivo, mice. Particulars: 1.16 mg/kg. An excerpt:
This may be due to slow metabolism of the compound. […] Thus, in some embodiments, the compositions of the invention can be administered is a dosage regimen that is highly convenient, e.g., once weekly instead of daily. The compositions of the present invention can be administered every 1, 2, 3, 4, 5, 6, or 7 days, or may be administered otherwise.

The test system of another data set is MDA-MB-231. Nature of the data set: MDA-MB-231 cell growth inhibition. The format is cell-based, human. The conditions noted are these: Homo sapiens, MDA-MB-231, 72 h; 3 days, CCK-8, vs DMSO; read-out: IC50, MDA-MB-231 (Breast). As to the method:
as §1, §2

Another data set concerns PANC-1 xenograft tumor. The experiment in a line: PANC-1 xenograft tumor growth in SCID mice. The format is in vivo. Particulars: 1.16 mg/kg i.p., six times per week. On the procedure: Xenograft tumor experiments have shown that GGTI's can inhibit PANC-1 tumor growth in mice. Seven SCID mice (six weeks old) received a subcutaneous implantation of 5 million PANC-1 cells. The mice were supplied with food and water for 14 days before treatment was started. The treatment group received 160 uM GGTI (p61A6) in 0.25 ml 0.9% NaCl while the control group received 0.25 ml 0.9% NaCl. Each dosage was injected 3 times per week. These dosage were designed to administer p61A6 at approximately 1.16 mg/kg of body weight. Also, since the mouse has about 2 ml blood, the final concentration of p61A6 in vivo was approximately 20 uM. The final DMSO concentration in the control group was approximately 0.8%.
Additional xenograft tumor experiments have shown that GGTI's can inhibit PANC-1 tumor growth in mice and reduce the size of the tumor. Six SCID mice (six weeks old) received a subcutaneous implantation of 3 million PANC-1 cells. The mice were supplied with food and water for 14 days before treatment began. […] Every two weeks each mouse's body weight and tumor volume was measured.

The test system of the next data set is MiaPaCa2. Nature of the data set: Cell cycle distribution by flow cytometry, MiaPaCa2. Particulars: 10 μM, 48 hours. The format is cell-based, human. As to the method:
as §2

In the next data set the test system is CFpac-1. The experiment in a line: CFpac-1 cell growth inhibition. The format is cell-based, human. The conditions noted are these: Homo sapiens, CFPAC-1, 72 h; 3 days, CCK-8, vs DMSO; read-out: IC50, CFpac-1 (Pancreas). As to the method: as §1, §2
The test system of a further data set is SE-Mk2. The experiment in a line: SE-Mk2 cell growth inhibition. It counts as cell-based. The conditions noted are these: Homo sapiens, SEMK2, 144 h; 6 days, CCK-8, vs DMSO; read-out: IC50, SE-Mk2 (Blood). As to the method:
as §2

For `Cc1ccccc1S(=O)(=O)N1[C@@H](c2cccc(Cl)c2)C(C(=O)O)=CC[C@H]1c1ccc(Cl)cc1` [P3-E5], the “inhibition of geranylgeranylation of Rheb-CSVL (slowly migrating unprocessed band)” value in data set [1] is on record as “inhibits geranylgeranylation in cells”. In addition, the “inhibition of proliferation of K562 cells” value in the data set on K562 cells (FIG. 23) was “inhibit the growth of the K562 cells”.

In general, Cmax refers to the peak of the concentration-time curve. The term half-life denotes the time needed for the level to fall by half in the phase considered. Lower therefore signals rapid decline. As for `Cc1ccccc1S(=O)(=O)N1C(c2ccc(Cl)cc2)C(C(=O)NC(Cc2ccccc2)C(N)=O)=CC1C(C)(C)C` (stereo not drawn) [P61-A6], the IC50 in the data set with Jurkat cells came out at 2.9 µM; in the data set on Capan-2 it was 11.5 µM; in the data set on K562 cells (Homo sapiens, K562, FIG. 36A, read-out: IC50, inhibition of proliferation of K562 cells) it was 2.2 µM; in the data set with MDA-MB-231, 8.7 µM; in the data set on CFpac-1 it was 6.3 µM; with SE-Mk2 it was 6.4 µM. For the same compound, in data set [2] (IP), the Clearance was determined as 1.04 mL/h. The maximum concentration (Cmax) in data set [2] (mouse, serum, ip) is 13000 ng/mL and 22.4 µM. In data set [2] (mouse, serum, ip), this compound showed a half-life of 16.9 h. Also, the AUC(0-t) in data set [2] (mouse, serum, ip, read-out: AUC0-4 h) was 22200 ng·h/mL. Further, in the data set on PANC-1 xenograft tumor, the “PANC-1 xenograft tumor growth” value is “almost complete inhibition”. In addition, the “Percent G2/M, MiaPaCa2” value in the data set on MiaPaCa2 (DMSO 14.12) came to 10.81%. Further, the “Percent G0/G1, MiaPaCa2” value in the data set on MiaPaCa2 (DMSO 77.85) is 87.98%.
